The source of these data is US12071425B2 (Genentech, Inc., priority 2018, dated 2024).

Counter-ions that a name gives are not always drawn.

The target in the experiment is kinase domain of IRE1 alpha (His-tagged kinase dead construct KR, AA G547-L977, D688N) (Homo sapiens (Human), UniProt O75460, D688N). Kind of experiment: IRE1α TR-FRET competition binding assay. The conditions noted are these: competition with Kinase Tracer 236, 0.1 μM; one hour at room temperature. The gist of the method: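 Compound displacement of an ATP-site fluorescent tracer (0.1 μM final) measured by TR-FRET after 1 h at room temperature. Protein, a His-tagged D688N kinase/RNase construct from Sf9 cells (0.006 μM final), was pre-bound 1 h at 4° C to Eu anti-His antibody (0.002 μM) in pH 7.5 HEPES buffer.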
kinase domain of IRE1 alpha (His-tagged kinase dead construct KR, AA G547-L977, D688N), sequence (O75460 547-977 D688N): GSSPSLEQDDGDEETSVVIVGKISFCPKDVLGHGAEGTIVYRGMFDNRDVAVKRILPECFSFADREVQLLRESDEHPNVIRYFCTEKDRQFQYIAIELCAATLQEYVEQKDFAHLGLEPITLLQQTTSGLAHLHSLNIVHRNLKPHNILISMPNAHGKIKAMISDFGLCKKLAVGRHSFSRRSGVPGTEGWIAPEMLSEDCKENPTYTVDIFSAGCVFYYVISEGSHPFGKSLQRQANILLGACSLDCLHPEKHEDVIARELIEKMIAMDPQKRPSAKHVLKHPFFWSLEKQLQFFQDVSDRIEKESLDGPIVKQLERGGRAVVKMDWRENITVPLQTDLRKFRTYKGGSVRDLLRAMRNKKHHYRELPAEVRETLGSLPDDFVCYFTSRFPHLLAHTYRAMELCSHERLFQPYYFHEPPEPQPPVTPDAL
A general note: TR-FRET usually uses a lanthanide donor and a delayed reading to cut background.
`O=S(=O)(Cc1ccccc1)Nc1c(F)cc(Oc2ncccc2-c2ccnc(NC3CNCC4(C3)CC4(F)F)n2)c(F)c1F` (single isomer, unassigned) [Compound 300, N-(4-((3-(2-((1,1-Difluoro-5-azaspiro[2.5]octan-7-yl)amino)pyrimidin-4-yl)pyridin-2-yl)oxy)-2,3,6-trifluorophenyl)-1-phenylmethanesulfonamide] showed a 50% inhibitory concentration (IC50) of 8.7 nM.
Then `CC(c1ccc(C#N)cc1)S(=O)(=O)Nc1ccc(Oc2ncccc2-c2ccnc(N[C@H]3CCCNC3)n2)c(F)c1F` (stereo partly drawn) [Compound 379, 1-(4-Cyanophenyl)-N-(2,3-difluoro-4-((3-(2-(((S)-piperidin-3-yl)amino)pyrimidin-4-yl)pyridin-2-yl)oxy)phenyl)ethane-1-sulfonamide], with 0.3 nM.
Then `COc1cc(Oc2ncccc2-c2ccnc(N[C@@H]3CNC[C@@H](F)C3)n2)cc(F)c1NS(=O)(=O)Cc1ccccc1` [Compound 296, N-(2-Fluoro-4-((3-(2-(((3S,5S)-5-fluoropiperidin-3-yl)amino)pyrimidin-4-yl)pyridin-2-yl)oxy)-6-methoxyphenyl)-1-phenylmethanesulfonamide], with 14 nM; and `O=S(=O)(CC1CC2(CCC2)C1)Nc1ccc(Oc2ncccc2-c2ccnc(N[C@H]3CCCNC3)n2)c(F)c1F` [Compound 209, (S)-N-(2,3-difluoro-4-((3-(2-(piperidin-3-ylamino)pyrimidin-4-yl)pyridin-2-yl)oxy)phenyl)-1-(spiro[3.3]heptan-2-yl)methanesulfonamide], with 7.5 nM; and `O=S(=O)(CC1CCC1(F)F)Nc1ccc(Oc2ncccc2-c2ccnc(N[C@H]3CCCNC3)n2)c(F)c1F` (stereo partly drawn) [Compound 192, N-(2,3-difluoro-4-((3-(2-(((S)-piperidin-3-yl)amino)pyrimidin-4-yl)pyridin-2-yl)oxy)phenyl)-1-(2,2-difluorocyclobutyl)methanesulfonamide hydrochloride], with 9.7 nM.
Turning to `O=S(=O)(Cc1ccc(F)cc1F)Nc1c(F)cc(Oc2ncccc2-c2ccnc(N[C@@H]3CNC[C@@H](F)C3)n2)c(F)c1F` [Compound 351, 1-(2,4-Difluorophenyl)-N-[2,3,6-trifluoro-4-[[3-[2-[[(3S,5S)-5-fluoro-3-piperidyl]amino]pyrimidin-4-yl]-2-pyridyl]oxy]phenyl]methanesulfonamide], the concentration for half-maximal inhibition (IC50) was 0.91 nM.
To `CC(F)C1CNCC(Nc2nccc(-c3cccnc3Oc3cc(F)c(NS(=O)(=O)Cc4ccccc4)c(F)c3F)n2)C1` (single isomer, unassigned) [Compound 342, 1-Phenyl-N-(2,3,6-trifluoro-4-((3-(2-((5-(1-fluoroethyl)piperidin-3-yl)amino)pyrimidin-4-yl)pyridin-2-yl)oxy)phenyl)methanesulfonamide hydrochloride] belongs 0.16 nM; to `N#Cc1ccc(CS(=O)(=O)Nc2c(F)cc(Oc3ncccc3-c3ccnc(N[C@@H]4CNC[C@@H](F)C4)n3)c(F)c2F)c(F)c1` [Compound 360], 0.8 nM; to `N#Cc1ccc(CS(=O)(=O)Nc2c(F)cc(Oc3ncccc3-c3ccnc(N[C@@H]4CNC[C@@H](F)C4)n3)c(F)c2F)cc1` [Compound 191, 1-(4-cyanophenyl)-N-(2,3,6-trifluoro-4-((3-(2-(((3S,5S)-5-fluoropiperidin-3-yl)amino)pyrimidin-4-yl)pyridin-2-yl)oxy)phenyl)methanesulfonamide], 4.3 nM.
In the case of `O=C(Nc1ccc(Oc2ncccc2-c2ccnc(N[C@@H]3CNC[C@@H](F)C3)n2)cc1)Nc1cccc(C(F)(F)F)c1` [Compound 276, 1-(4-((3-(2-(((3S,5S)-5-Fluoropiperidin-3-yl)amino)pyrimidin-4-yl)pyridin-2-yl)oxy)phenyl)-3-(3-(trifluoromethyl)phenyl)urea], the half-inhibitory concentration (IC50) turned out to be 180 nM.
Then `CN1CCC[C@H](Nc2nccc(-c3cccnc3Oc3ccc(NS(=O)(=O)Cc4ccccc4)c(F)c3F)n2)C1` [Compound 170, (S)-N-(2,3-difluoro-4-((3-(2-((1-methylpiperidin-3-yl)amino)pyrimidin-4-yl)pyridin-2-yl)oxy)phenyl)-1-phenylmethanesulfonamide], with 11 nM; and `O=S(=O)(Nc1c(F)cc(Oc2ncccc2-c2ccnc(N[C@@H]3CNC[C@@H](F)C3)n2)c(F)c1F)N1CCCC1` [Compound 258, N-(2,3,6-Trifluoro-4-((3-(2-(((3S,5S)-5-fluoropiperidin-3-yl)amino)pyrimidin-4-yl)pyridin-2-yl)oxy)phenyl)pyrrolidine-1-sulfonamide], with 5.2 nM.
Then `CS(=O)(=O)c1ccc(CS(=O)(=O)Nc2c(F)cc(Oc3ncccc3-c3ccnc(N[C@@H]4CNC[C@@H](F)C4)n3)c(F)c2F)cc1` [Compound 312, 1-(4-(Methylsulfonyl)phenyl)-N-(2,3,6-trifluoro-4-((3-(2-(((3S,5S)-5-fluoropiperidin-3-yl)amino)pyrimidin-4-yl)pyridin-2-yl)oxy)phenyl)methanesulfonamide], with 0.14 nM; and `CC(F)C1CNCC(Nc2nccc(-c3cccnc3Oc3cc(F)c(NS(=O)(=O)Cc4ccccc4)c(F)c3F)n2)C1` (single isomer, unassigned) [Compound 347, 1-Phenyl-N-(2,3,6-trifluoro-4-((3-(2-((5-(1-fluoroethyl)piperidin-3-yl)amino)pyrimidin-4-yl)pyridin-2-yl)oxy)phenyl)methanesulfonamide], with 49 nM; and `Cc1ccc(CS(=O)(=O)Nc2c(F)cc(Oc3ncccc3-c3ccnc(N[C@@H]4CNC[C@@H](F)C4)n3)c(F)c2F)c(F)c1` [Compound 384, 1-(2-Fluoro-4-methylphenyl)-N-(2,3,6-trifluoro-4-((3-(2-(((3S,5S)-5-fluoropiperidin-3-yl)amino)pyrimidin-4-yl)pyridin-2-yl)oxy)phenyl)methanesulfonamide], with 0.3 nM.
To `Cc1cc(CS(=O)(=O)Nc2c(F)cc(Oc3ncccc3-c3ccnc(N[C@@H]4CNC[C@@H](F)C4)n3)c(F)c2F)no1` [Compound 204, 1-(5-methylisoxazol-3-yl)-N-(2,3,6-trifluoro-4-((3-(2-(((3S,5S)-5-fluoropiperidin-3-yl)amino)pyrimidin-4-yl)pyridin-2-yl)oxy)phenyl)methanesulfonamide] belongs 4.1 nM; to `O=S(=O)(CC1CC(F)(F)C1)Nc1ccc(Oc2ncccc2-c2ccnc(N[C@H]3CCCNC3)n2)c(F)c1F` [Compound 232, (S)-N-(2,3-difluoro-4-(3-(2-(piperidin-3-ylamino)pyrimidin-4-yl)pyridin-2-yloxy)phenyl)-1-(3,3-difluorocyclobutyl)methanesulfonamide], 15 nM; to `O=S(=O)(Cc1ccccc1)Nc1ccc(Oc2ncccc2-c2ccnc(N[C@H]3CCNC3)n2)c(F)c1F` [Compound 167, (S)—N-(2,3-Difluoro-4-((3-(2-(pyrrolidin-3-ylamino)pyrimidin-4-yl)pyridin-2-yl)oxy)phenyl)-1-phenylmethanesulfonamide], 17 nM.
The compound `O=S(=O)(Cc1ccccc1)Nc1c(F)cc(Oc2ncccc2-c2ccnc(N[C@@H]3CNC[C@H](CF)C3)n2)c(F)c1F` [Compound 262, 1-Phenyl-N-(2,3,6-trifluoro-4-((3-(2-(((3S,5R)-5-(fluoromethyl)piperidin-3-yl)amino)pyrimidin-4-yl)pyridin-2-yl)oxy)phenyl)methanesulfonamide] registered a half-maximal inhibitory concentration (IC50) of 0.25 nM.
For the compound `O=S(=O)(Cc1cccc(F)c1)Nc1ccc(Oc2ncccc2-c2ccnc(N[C@H]3CCCNC3)n2)c(F)c1F` [Compound 231, (S)-N-(2,3-difluoro-4-((3-(2-(piperidin-3-ylamino)pyrimidin-4-yl)pyridin-2-yl)oxy)phenyl)-1-(3-fluorophenyl)methanesulfonamide], the IC50 amounted to 7.2 nM.
Then `CCC(F)(F)CS(=O)(=O)Nc1c(F)cc(Oc2ncc(F)cc2-c2ccnc(N[C@@H]3CNC[C@@H](F)C3)n2)c(F)c1F` [Compound 268, 2,2-Difluoro-N-(2,3,6-trifluoro-4-((5-fluoro-3-(2-(((3S,5S)-5-fluoropiperidin-3-yl)amino)pyrimidin-4-yl)pyridin-2-yl)oxy)phenyl)butane-1-sulfonamide], with 1.1 nM; and `CN(C)C1CCC(Nc2nccc(-c3cccnc3Oc3cc(F)c(NS(=O)(=O)Cc4ccccc4)c(F)c3F)n2)CC1F` (single isomer, unassigned) [Compound 308, N-(4-((3-(2-((4-(Dimethylamino)-3-fluorocyclohexyl)amino)pyrimidin-4-yl)pyridin-2-yl)oxy)-2,3,6-trifluorophenyl)-1-phenylmethanesulfonamide], with 83 nM.
Then `CN(C)[C@H]1CC[C@H](Nc2nccc(-c3cccnc3Oc3cc(F)c(NS(=O)(=O)Cc4ccccc4)c(F)c3F)n2)CC1` [Compound 272, N-(4-((3-(2-(((1r,4r)-4-(Dimethylamino)cyclohexyl)amino)pyrimidin-4-yl)pyridin-2-yl)oxy)-2,3,6-trifluorophenyl)-1-phenylmethanesulfonamide hydrochloride], with 0.15 nM.
Then `O=S(=O)(Cc1ccccc1)Nc1c(F)cc(Oc2ncccc2-c2ccnc(NC3CNCC(CF)C3)n2)c(F)c1F` (single isomer, unassigned) [Compound 278, 1-Phenyl-N-(2,3,6-trifluoro-4-((3-(2-((5-(fluoromethyl)piperidin-3-yl)amino)pyrimidin-4-yl)pyridin-2-yl)oxy)phenyl)methanesulfonamide], with 0.78 nM.
Regarding `CCCS(=O)(=O)Nc1ccc(F)c(Oc2ncccc2-c2ccnc(N[C@H]3CCCNC3)n2)c1` [Compound 127, (S)-N-(4-fluoro-3-((3-(2-(piperidin-3-ylamino)pyrimidin-4-yl)pyridin-2-yl)oxy)phenyl)propane-1-sulfonamide], the IC50 was 370 nM.

A word on the IC50: it is the point on the concentration scale where inhibition reaches its midpoint.
